This passage reports IC50 results from PMC10253812, “Novel 2-alkythio-4-chloro-N-[imino(heteroaryl)methyl]benzenesulfonamide Derivatives: Synthesis, Molecular Structure, Anticancer Activity and Metabolic Stability” (International Journal of Molecular Sciences, 2023).

Structures are written as SMILES.

Test [1] deals with HaCaT (immortalized human keratinocytes). The test can be described thus: MTT cell viability assay, non-tumor HaCaT. The format is cell-based. The settings on record: 72 h of incubation, non-tumor cell line. On the procedure:
(§1) Compounds 8–24 were evaluated in vitro for their cytotoxic effect against three human cancer cell lines, i.e., HeLa (cervical cancer), HCT-116 (colon cancer) and MCF-7 (breast cancer), and the non-tumor cell line HaCaT using the MTT assay after 72 h of incubation. The results of tests are presented in Table 1 as IC50, indicating the concentration required for 50% inhibition of cell viability. Compounds 8–10 and 14–18 are not presented in the Table 1 because of their low potency (IC50 > 100 µM).
We also performed an assay on the non-tumor cell line HaCaT (immortalized human keratinocytes) to assess if the effect of 11–13 was selective toward HeLa cells or resulted from a more general toxic activity.
(§2) All chemicals, if not stated otherwise, were obtained from Sigma-Aldrich (St. Louis, MO, USA). The MCF-7, HeLa and HaCaT cell lines were purchased from Cell Lines Services (Eppelheim, Germany), and the HCT-116 cell line was purchased from ATCC (ATCC-No: CCL-247). The cells were cultured in Dulbecco’s modified Eagle’s medium (DMEM) supplemented with 10% fetal bovine serum, 2 mM glutamine, 100 units/mL of penicillin and 100 μg/mL of streptomycin. The cultures were maintained in a humidified atmosphere with 5% CO2 at 37 °C, in an incubator (Heraeus, HeraCell).
(§3) Cytotoxicity assay: Cell viability was determined using the MTT (3-(4,5-dimethylthiazol-2-yl)-2,5diphenyltetrazoliumbromide) assay. The cells were seeded in 96-well plates at a density of 5 × 10^3 cells/well and treated for 24, 48 and 72 h with the examined compounds in the concentration range 1–100 μM. Following treatment, MTT (0.5 mg/mL) was added to the medium, and the cells were further incubated for 2 h at 37 °C. the cells were lysed with DMSO, and the absorbance of the formazan solution was measured at 550 nm with a plate reader (Victor, 1420 multilabel counter). The experiment was performed in triplicate. The values are expressed as the mean ± SD of at least three independent experiments.
A general note: Formazan colour is commonly taken as a measure of viable cells.

The test system of test [2] is MCF-7 (breast cancer) cell line. The test can be described thus: MTT cell viability assay, MCF-7. As to conditions: MTT assay, 72 h of incubation. The format is cell-based, human. As for the experimental part:
as §1, §2, §3

For test [3], the system named is HeLa, HCT-116 and MCF-7 cell lines. The test can be described thus: MTT screening, statements pooled over the three cancer cell lines. The format is cell-based. The settings on record: Homo sapiens, 72 h, HCT-116, MCF-7, read-out: IC50 (low potency, not shown in Table 1). As for the experimental part: as §1, §2, §3
Test [4] has as its system HCT-116 (colon cancer) cell line. The test can be described thus: MTT cell viability assay, HCT-116. Type of test: cell-based. The settings on record: Homo sapiens, 72 h of incubation. As for the experimental part: as §1, §2, §3
Test [5] concerns HeLa (cervical cancer) cell line. The test can be described thus: MTT cell viability assay, HeLa. Type of test: cell-based, human. As to conditions: Homo sapiens, HeLa; MTT assay, 72 h of incubation; read-out: IC50 HeLa. As for the experimental part:
as §1
The cytotoxic activity of 11–13 was determined in a time-dependent manner with the MTT assay (Figure 3).
HeLa cells were treated with 11, 12 and 13 in the concentration range of 0–20 µM. […] After 48 h, the IC50 values for compounds 11, 12 and 13 were 6, 7 and 6 µM, respectively.
as §2, §3

As for `N.N.[Cl][Pt][Cl]` [Cisplatin, reference compound], the values for the half-maximal inhibitory concentration (IC50) in test [1] and in test [2] were 7.7 ± 0.2 µM and 3 ± 0.1 µM, respectively.
Turning to `Cc1cc(S(=O)(=O)NC(=N)n2ccn(C)c2=S)c(SCc2ccccc2)cc1Cl` [Compound 8, 2-Benzylthio-4-chloro-N-[imino(3-methyl-2-thioxo-2,3-dihydro-1H-imidazol-1-yl)methyl]-5-methylbenzenesulfonamide], the IC50 in test [3] is above 100 µM.
On the same count and under the same terms, with `Cc1cc(S(=O)(=O)NC(=N)n2ccn(C)c2=S)c(SCc2cccc(C(F)(F)F)c2)cc1Cl` [Compound 9, 4-Chloro-N-[imino(3-methyl-2-thioxo-2,3-dihydro-1H-imidazol-1-yl)methyl]-5-methyl-2-(3-trifluoromethylbenzylthio)benzenesulfonamide] the figure was above 100 µM.
Still for that read-out and setting: with `Cc1cc(S(=O)(=O)NC(=N)n2ccn(C)c2=S)c(SCc2ccc(C(F)(F)F)cc2)cc1Cl` [Compound 10, 4-Chloro-N-[imino(3-methyl-2-thioxo-2,3-dihydro-1H-imidazol-1-yl)methyl]-5-methyl-2-(4-trifluoromethylbenzylthio)benzenesulfonamide] the figure was above 100 µM; with `CCOC(=O)CSc1cc(Cl)c(C)cc1S(=O)(=O)NC(=N)n1ccn(C)c1=S` [Compound 14, 4-Chloro-2-ethoxycarbonylmethylthio-N-[imino(3-methyl-2-thioxo-2,3-dihydro-1H-imidazol-1-yl)methyl]-5-methylbenzenesulfonamide], above 100 µM; with `Cc1cc(S(=O)(=O)NC(=N)n2ncn(C)c2=S)c(SCc2ccccc2)cc1Cl` [Compound 15, 2-Benzylthio-4-chloro-5-methyl-N-[imino(4-methyl-5-thioxo-4,5-dihydro-1H-1,2,4-triazol-1-yl)methyl]benzenesulfonamide], above 100 µM.
Still for that read-out and setting: with `Cc1cc(S(=O)(=O)NC(=N)n2ncn(C)c2=S)c(SCc2ccc(C(F)(F)F)cc2)cc1Cl` [Compound 17, 4-Chloro-N-[imino(4-methyl-5-thioxo-4,5-dihydro-1H-1,2,4-triazol-1-yl)methyl]-5-methyl-2-(4-trifluoromethylbenzylthio)benzenesulfonamide] the figure was above 100 µM; with `Cc1cc(S(=O)(=O)NC(=N)n2ncn(C)c2=S)c(SCc2ccc(Cl)cc2)cc1Cl` [Compound 18, 4-Chloro-2-(4-chlorobenzylthio)-N-[imino(4-methyl-5-thioxo-4,5-dihydro-1H-1,2,4-triazol-1-yl)methyl]5-methylbenzenesulfonamide], above 100 µM.
`Cc1cc(S(=O)(=O)NC(=N)n2c(=S)[nH]c3ccccc32)c(SCc2ccccc2)cc1Cl` [Compound 19, 2-Benzylthio-4-chloro-5-methyl-N-[imino-(2-thioxo-2,3-dihydro-1H-benzo[d]imidazol-1-yl)methyl]benzenesulfonamide]: the IC50 in test [4] is 36 ± 1 µM; in test [5] it was 60 ± 3 µM; in test [2] (Homo sapiens, MCF7), 82 ± 4 µM.
The like results for `Cc1cc(S(=O)(=O)NC(=N)n2c(=S)[nH]c3ccccc32)c(SCc2cccc(C(F)(F)F)c2)cc1Cl` [Compound 20, 4-Chloro-N-[imino-(2-thioxo-2,3-dihydro-1H-benzo[d]imidazol-1-yl)methyl]-5-methyl-2-(3-trifluoromethylbenzylthio)benzenesulfonamide] were, in that order, 17 ± 0.5 µM, 43 ± 1 µM and 49 ± 1 µM.
On the same counts, the results for `Cc1cc(S(=O)(=O)NC(=N)n2c(=S)[nH]c3ccccc32)c(SCc2ccc(C(F)(F)F)cc2)cc1Cl` [Compound 21, 4-Chloro-N-[imino-(2-thioxo-2,3-dihydro-1H-benzo[d]imidazol-1-yl)methyl]-5-methyl-2-(4-trifluoromethylbenzylthio)benzenesulfonamide] are 23 ± 0.2 µM, 52 ± 1 µM and 62 ± 3 µM.
The like results for `Cc1cc(S(=O)(=O)NC(=N)n2c(=S)[nH]c3ccccc32)c(SCc2ccc(Cl)cc2)cc1Cl` [Compound 22, 4-Chloro-2-(4-chlorobenzylthio)-N-[imino-(2-thioxo-2,3-dihydro-1H-benzo[d]imidazol-1-yl)methyl]-5-methylbenzenesulfonamide] were, in that order, 27 ± 0.5 µM, 49 ± 2 µM and 73 ± 2 µM.
`Cc1cc(S(=O)(=O)NC(=N)n2c(=S)[nH]c3ccccc32)c(SCc2cc3c(cc2Cl)OCO3)cc1Cl` [Compound 23, 4-Chloro-2-(6-chlorobenzo [1,3]dioxol-5-ylmethylthio)-N-[imino-(2-thioxo-2,3-dihydro-1H-benzo[d]imidazol-1-yl)methyl]-5-methylbenzenesulfonamide]: the concentration for half-maximal inhibition (IC50) in test [4] stood at 34 ± 0.3 µM; in test [5], 57 ± 1 µM; in test [2] (Homo sapiens, MCF7), 50 ± 2 µM.
The like results for `Cc1cc(S(=O)(=O)NC(=N)n2c(=S)[nH]c3ccccc32)c(SCc2cccc3ccccc23)cc1Cl` [Compound 24, 4-Chloro-N-[imino-(2-thioxo-2,3-dihydro-1H-benzo[d]imidazol-1-yl)methyl]-5-methyl-2-(naphthalen-1-ylmethylthio)benzenesulfonamide] were, in that order, 21 ± 0.6 µM, 33 ± 1 µM and 56 ± 2 µM.

In general, IC50 refers to the concentration that inhibits the measured activity by half.
